Reference: patent US20250288587A1, “Methods of Treating Fibrosis” (Athira Pharma, Inc., priority 2022, published 2025)

Tests used:
[1] = tested on: pulmonary LPS-stimulated rats; assay: Immune cell infiltration in BALF, LPS-induced acute pulmonary inflammation; assay type: in vivo; parameters: key to Total Leukocytes in BALF, reduction in cell count vs disease control / Neutrophils in BALF, reduction in cell count vs disease control: + = >5-25% improvement vs disease control; ++ = >26-50% improvement vs disease control; +++ = >51-100% improvement v disease control; NS means not significant; settings: 24 h and 0.5 h before LPS; for Neutrophils in BALF, reduction in cell count vs disease control / Total Leukocytes in BALF, reduction in cell count vs disease control: BALF 4 h post LPS; for total leukocyte counts and neutrophil counts in BALF compared to LPS-only controls: IV
Excerpt: Acute pulmonary inflammation can be effectively modeled in rats by intratracheal administration of bacterial lipopolysaccharides (LPS). Pulmonary inflammation that is left unresolved can lead to pulmonary fibrosis. The normal process of inflammation is regulated and promoted by expression, secretion, and distribution of inflammatory signaling proteins. Therapeutics intended to reduce inflammation are commonly identified by their ability to change the expression levels of inflammatory signaling molecules, either by disruption of the inflammatory pathway directly, or resolution of the inflammatory signaling cascade. The severity of inflammatory response can be measured by quantifying the amount of immune cell infiltration and secretion of cytokine signaling proteins in bronchoalveolar lavage fluid (BALF).
In this study, acute pulmonary inflammation was induced in healthy male Sprague-Dawley rats (7-9 weeks old at study start) by intratracheal instillation of […] LPS in saline. Test animals were treated with test compounds twice, at 24 hours and 0.5 hours before LPS treatment by intravenous (IV) injection. […] Four hours post LPS administration, animals were euthanized by intraperitoneal injection of thiopentone and 20 mL of cold Hanks Balanced Salt Solution, pH 7.2, was infused into the lungs through tracheal cannulation. BALF was then collected.
Immune cell infiltration was performed by counting total leukocytes using a MUSE® mini flow cytometer, and by manual counting of neutrophil cells in cytospin smears stained with Leishman's staining reagent.

[2] = tested on: pulmonary LPS-stimulated rats; assay: Cytokine expression in BALF supernatant (multiplex immunoassay), LPS-induced acute pulmonary inflammation; assay type: in vivo; settings: for cytokines with significant changes in expression in BALF supernatant versus LPS-only animals: p<0.05, Student's T-test, any tested dose
MRC-5 cells = assay: TGFβ-stimulated αSMA expression in MRC-5 cells (HTRF); assay type: cell-based; parameters: key to Significant reduction in αSMA via HTRF compared to TGFβ alone: NS = no statistically significant change in aSMA expression; + = p < 0.05; ++ = p < 0.01; +++ = p < 0.005; ++++ = p < 0.001; settings: for αSMA expression: combined with 0.01 ng/ml HGF; for Significant reduction in αSMA via HTRF compared to TGFβ alone: TGFβ 1 ng/ml, HGF 0.01 ng/ml, 48 h
Protocol: In this study, pulmonary-derived immortalized fibroblasts, MRC-5 cells, were cultured as a model of the early transition to fibrosis, and αSMA expression was measured using an immunodetection system driven by homogenous time-resolved fluorescence (HTRF) technology. This detection system produces a fluorescent signal in the presence of αSMA in cell lysates. Cells were grown to confluence in 96-well culture plates in complete media, and then transitioned to serum-free media for 2 hours. Next TGFβ (final 1 ng/ml in serum-free media) was added to the cells to stimulate the fibrotic transition. After 2 hours, media containing either HGF or HGF combined with one of the compounds was added to the cells. After incubation for 48 hours, cells were lysed and processed for αSMA HTRF to detect the levels of αSMA expression and compared to TGFβ-stimulated cultures. Statistical analysis consisted of 1-way ANOVA with a Dunnett's multiple comparison's post-test.

[3] = 0.075 mg/kg IV, 24 h and 0.5 h before LPS
[4] = 0.75 mg/kg IV, 24 h and 0.5 h before LPS
[5] = 7.5 mg/kg IV, 24 h and 0.5 h before LPS

With `CCC(C)CN1CC2N(C(=O)c3ccc(C(F)(F)F)cc3)CCC(=O)N2[C@@H](C)C1=O` (stereo partly shown) [Compound 1a] the “Neutrophils in BALF, reduction in cell count vs disease control” value (“Neutrophils in BALF, reduction” for short) ([1]; 0.075 mg/kg IV) was “+ (+ = >5% reduction in cell count vs disease control)”, the “Total Leukocytes in BALF, reduction in cell count vs disease control” value (“Total Leukocytes in BALF, reduction” for short) ([1]; 0.075 mg/kg IV) was “+ (+ = >5% reduction in cell count vs disease control)” and the “Neutrophils in BALF, reduction” value ([1]; 0.75 mg/kg IV) was “NS”. For the same molecule, the “Total Leukocytes in BALF, reduction” value ([1]; 0.75 mg/kg IV) was “NS”, the “total leukocyte counts and neutrophil counts in BALF compared to LPS-only controls” value [1] was “reduced both total leukocyte counts and neutrophil counts” and the “CXCL10, significant change in cytokine expression in BALF supernatant” value [2, 3] was “+ (+ = Significant change in cytokine quantification, p < 0.05 by Student's T-test)”. The “IFN-γ, significant change in cytokine expression in BALF supernatant” value (from here on “IFN-γ, significant change”) [2, 3] was “+ (+ = Significant change in cytokine quantification, p < 0.05 by Student's T-test)”, the “CXCL2, significant change in cytokine expression in BALF supernatant” value [2, 4] was “+ (+ = Significant change in cytokine quantification, p < 0.05 by Student's T-test)” and the “CXCL10, significant change in cytokine expression in BALF supernatant” value [2, 4] was “+ (+ = Significant change in cytokine quantification, p < 0.05 by Student's T-test)”. For the same molecule, the “G-CSF, significant change in cytokine expression in BALF supernatant” value [2, 4] was “+ (+ = Significant change in cytokine quantification, p < 0.05 by Student's T-test)”, the “IL-1β, significant change in cytokine expression in BALF supernatant” value (“IL-1β, significant change” below) [2, 4] was “+ (+ = Significant change in cytokine quantification, p < 0.05 by Student's T-test)” and the “cytokines with significant changes in expression in BALF supernatant versus LPS-only animals” value [2] was “G-CSF, CXCL2, CXCL10, IFN-γ, and IL-1β”. For the same molecule, the αSMA expression (MRC-5 cells; 1 uM) was “significantly reduced αSMA”, the “Significant reduction in αSMA via HTRF compared to TGFβ alone” value (shortened to “Significant reduction in αSMA via HTRF”) (MRC-5 cells; test compound 1 nM) was “NS” and the “Significant reduction in αSMA via HTRF” value (MRC-5 cells; test compound 1 μM) was “++++ (++++ = p < 0.001)”.

In the case of `CCC(C)CN1CC2N(Cc3ccc(C(F)(F)F)cc3)CCC(=O)N2[C@@H](C)C1=O` (stereo partly shown) [Compound 5a], the “Neutrophils in BALF, reduction” value ([1]; 0.075 mg/kg IV) is reported as “++ (++ = >25% reduction in cell count vs disease control)”, the “Total Leukocytes in BALF, reduction” value ([1]; 0.075 mg/kg IV) is reported as “++ (++ = >25% reduction in cell count vs disease control)” and the “Neutrophils in BALF, reduction” value ([1]; 0.75 mg/kg IV) is reported as “+ (+ = >5% reduction in cell count vs disease control)”. For the same molecule, the “Total Leukocytes in BALF, reduction” value ([1]; 0.75 mg/kg IV) was “+ (+ = >5% reduction in cell count vs disease control)”, the “Neutrophils in BALF, reduction” value ([1]; 7.5 mg/kg IV) was “+ (+ = >5% reduction in cell count vs disease control)” and the “Total Leukocytes in BALF, reduction” value ([1]; 7.5 mg/kg IV) was “+ (+ = >5% reduction in cell count vs disease control)”. For the same molecule, the “total leukocyte counts and neutrophil counts in BALF compared to LPS-only controls” value [1] was “reduced both total leukocyte counts and neutrophil counts”, the “CCL3, significant change in cytokine expression in BALF supernatant” value [2, 3] was “+ (+ = Significant change in cytokine quantification, p < 0.05 by Student's T-test)” and the “CX3CL1, significant change in cytokine expression in BALF supernatant” value [2, 3] was “+ (+ = Significant change in cytokine quantification, p < 0.05 by Student's T-test)”. The “EGF, significant change in cytokine expression in BALF supernatant” value [2, 3] was “+ (+ = Significant change in cytokine quantification, p < 0.05 by Student's T-test)”, the “IFN-γ, significant change” value [2, 3] was “+ (+ = Significant change in cytokine quantification, p < 0.05 by Student's T-test)” and the “IL-1α, significant change in cytokine expression in BALF supernatant” value (from here on “IL-1α, significant change”) [2, 3] was “+ (+ = Significant change in cytokine quantification, p < 0.05 by Student's T-test)”. For the same molecule, the “IL-1β, significant change” value [2, 3] was “+ (+ = Significant change in cytokine quantification, p < 0.05 by Student's T-test)”, the “IL-10, significant change in cytokine expression in BALF supernatant” value (“IL-10, significant change” below) [2, 3] was “+ (+ = Significant change in cytokine quantification, p < 0.05 by Student's T-test)” and the “IL-12p70, significant change in cytokine expression in BALF supernatant” value [2, 3] was “+ (+ = Significant change in cytokine quantification, p < 0.05 by Student's T-test)”. The “IL-17A, significant change in cytokine expression in BALF supernatant” value [2, 3] was “+ (+ = Significant change in cytokine quantification, p < 0.05 by Student's T-test)”, the “IFN-γ, significant change” value [2, 4] was “+ (+ = Significant change in cytokine quantification, p < 0.05 by Student's T-test)” and the “IL-1α, significant change” value [2, 4] was “+ (+ = Significant change in cytokine quantification, p < 0.05 by Student's T-test)”. The “IL-1β, significant change” value [2, 4] was “+ (+ = Significant change in cytokine quantification, p < 0.05 by Student's T-test)”, the “IL-10, significant change” value [2, 4] was “+ (+ = Significant change in cytokine quantification, p < 0.05 by Student's T-test)” and the “IL-17A, significant change in cytokine expression in BALF supernatant” value [2, 4] was “+ (+ = Significant change in cytokine quantification, p < 0.05 by Student's T-test)”. For the same molecule, the “IL-1α, significant change” value [2, 5] was “+ (+ = Significant change in cytokine quantification, p < 0.05 by Student's T-test)”, the “IL-10, significant change” value [2, 5] was “+ (+ = Significant change in cytokine quantification, p < 0.05 by Student's T-test)” and the “cytokines with significant changes in expression in BALF supernatant versus LPS-only animals” value [2] was “CCL3, CXCL1, IFN-γ, IL-1α, IL-1β, IL-10, IL-12p70, and IL-17A”. The αSMA expression (MRC-5 cells; 1 nM) was “significantly reduced αSMA”, the αSMA expression (MRC-5 cells; 1 uM) was “significantly reduced αSMA” and the “Significant reduction in αSMA via HTRF” value (MRC-5 cells; test compound 1 nM) was “+ (+ = p < 0.05)”. For the same molecule, the “Significant reduction in αSMA via HTRF” value (MRC-5 cells; test compound 1 μM) was “++++ (++++ = p < 0.001)”.
